According to patent US12105070B2, “LC-MS/MS method for measurement of Aloesin in rat plasma” (HAINAN MEDICAL UNIVERSITY, priority 2020, dated 2024):

How the values were obtained:
[1] = toxicological studies, no details given; cited from earlier work
[2] = Stability of aloesin in plasma samples (LC-MS/MS quality control samples); type: in vitro ADME, rat
Method: Prepare 3 concentrations of aloesin quality control samples (500 ng·mL^−1, 50 ng·mL^−1, 3 ng·mL^−1) with blank plasma, and examine the stability under the following conditions.
(1) After the sample is processed, it is placed in the autosampler for 8 hours, and then the sample is injected for analysis;
(2) The sample is processed after 3 freeze-thaw cycles, and the sample is injected for analysis;
(3) The sample is placed at room temperature for 4 hours and then comes out, and the sample is injected for analysis;
(4) The sample is processed after the sample is stored at −20° C. for 15 days, and then the sample is injected for analysis.
The stability inspection is qualified.

Accuracy ([2]; 3 ng·ml^-1 in plasma, 3 freeze-thaw cycles): 109.60% | Accuracy ([2]; 3 ng·ml^-1 in plasma, processed sample in autosampler 8 h): 109.20% | Accuracy ([2]; 3 ng·ml^-1 in plasma, room temperature for 4 hours): 106.18% | Accuracy ([2]; 3 ng·ml^-1 in plasma, stored at -20° C. for 15 days): 108.00% | Accuracy ([2]; 50 ng·ml^-1 in plasma, 3 freeze-thaw cycles): 109.40% | Accuracy ([2]; 50 ng·ml^-1 in plasma, processed sample in autosampler 8 h): 108.20% | Accuracy ([2]; 50 ng·ml^-1 in plasma, room temperature for 4 hours): 105.20% | Accuracy ([2]; 50 ng·ml^-1 in plasma, stored at -20° C. for 15 days): 100.14% | Accuracy ([2]; 500 ng·ml^-1 in plasma, 3 freeze-thaw cycles): 105.20% | Accuracy ([2]; 500 ng·ml^-1 in plasma, processed sample in autosampler 8 h): 102.60% | Accuracy ([2]; 500 ng·ml^-1 in plasma, room temperature for 4 hours): 101.80% | Accuracy ([2]; 500 ng·ml^-1 in plasma, stored at -20° C. for 15 days): 94.66%
Compound: CC(=O)Cc1cc(=O)c2c(C)cc(O)c([C@@H]3O[C@H](CO)[C@@H](O)[C@H](O)[C@H]3O)c2o1 [aloesin]
toxic side effects [1]: basically no toxic side effects
